Measured values taken from ChEMBL document CHEMBL1127044, “Preparation and pharmacological evaluation of enantiomers of certain nonoxygenated aporphines: (+)- and (-)-aporphine and (+)- and (-)-10-methylaporphine” (1993).

species on record: Cavia porcellus; test: Tested for inhibition of field-stimulation-induced contraction in the isolated guinea pig ileum; type: functional; settings: read-out: ID50 (the source's name)

SMILES	IC50
Cc1ccc2c(c1)-c1cccc3c1[C@@H](C2)N(C)CC3	6.8 µM
CCCN(CCC)C1CCc2cccc(O)c2C1 (racemic) [8-OH-DPAT]	0.06 µM
Cc1ccc2c(c1)-c1cccc3c1[C@H](C2)N(C)CC3	1.2 µM
